From US20020173551A1 (priority 1998, published 2002)
Where a name gives a salt, the structure may show the parent alone.

Columns and labels:
[1] = Side effects observed in the treated cases; format: in vivo, humans
Source text: The sixth case was patient two, a reporter. […] This was given for recurrent buttock herpes simplex II, This was ceased and after 1 year, the hypertension and renal impairment reverted to normal. […] This involved the nares, upper and lower lips bilaterally. Even after topical acyclovir, the course of the illness was 2 weeks of significant outbreak. […] Their partner also developed scarlet fever as well. […] It should be noted that this patient is usually very intolerant of medications and tends to vomit easily.

[2] = system: monoamine oxidase; details: cited from earlier work
[3] = system: herpes simplex II; experiment: Case report: recurrent buttock herpes simplex II; format: in vivo, humans; details: Example 6, case two
Source text: The sixth case was patient two, a reporter. […] This was given for recurrent buttock herpes simplex II, This was ceased and after 1 year, the hypertension and renal impairment reverted to normal.

[4] = system: neuronal uptake of noradrenahne (NA); details: cited from earlier work
[5] = system: neuronal uptake of dopamine (DA); details: cited from earlier work
[6] = system: genital Herpes Simplex viral infection; experiment: Case reports: recurrent genital herpes treated with bupropion; format: in vivo, humans
Source text: There were 5-6 recurrences per year. […] The fourth case was patient one, a student with extensive genital herpes. They have had 4 attacks thus far, which have been treated initially with acyclovir and then later with famciclovix. The normal duration of these attacks on these agents was 5-7 days. They were unable to attend classes and took a further 2 weeks before they felt normal. A big feature of their illness is the severe fatigue that precedes and follows their attacks. […] They had not developed any post-[…] fatigue either. They later used a further 2 day course when they felt tingling.

[7] = system: HSV I / herpes labialis (cold sores); experiment: Case reports: herpes labialis (cold sores) treated with bupropion; format: in vivo, humans
[8] = system: HSV I / herpes labialis (cold sores); experiment: as above; format: in vivo, humans; remark: listed apart in the source
Source text: […] They have approximately 1 episode per month related to menstrual periods. This has been occurring for the last 6 years and has lasted for at least a week of every month. The severity varied according to […] general state of health and stress levels. The outbreaks lasted at least one week and have made a significant impact on their psychological state. They have not been on systemic therapy.
The third case was patient five, a entrepreneur. They have a coffee shop chain. They are thus very visible and they are very self-conscious of even minor blemishes on their face. They have mild herpes labialis (cold sores), which occurs approximately 5 times a year. They have taken intermittent acyelovir and has even considered continuous acyclovir, because of their image.
[…] They had been paying for acyclovir privately, despite the cost, because of their wish to suppress their frequent and unsightly lesions. […] An attack was treated within 24 hours on the two agents.
[…] This involved the nares, upper and lower lips bilaterally. […] Their partner also developed scarlet fever as well. […] It should be noted that this patient is usually very intolerant of medications and tends to vomit easily.
Her normal herpes labialis lasted between 5 and 7 days.

[9] = system: herpes virus; experiment: Overall assessment of the case series against other anti-viral agents; format: in vivo, humans; details: treatment and prevention of infections caused by the herpes virus
Source text: The physician conducting the above trials has reported that the results thus far have been beyond expectation. They are commented that “not only has there been a success from a completely unlikely agent, but there has also been a success beyond that achieved by the well-established anti-viral agents.”

[10] = Example 1, case gamma, 4 doses of 150 mg over 2 days
[11] = Example 4, case one, 300 mg twice daily for 2 days

CC(NC(C)(C)C)C(=O)c1cccc(Cl)c1 (racemic) [bupropion, (±)-1-(3-chlorophenyl)-2-[(1,1-dimethylethyl)-amino)-1-propanone hydrochloride]
concurrent scarlet fever ([1]; Example 7, case alpha): did not worsen | side effects ([1]; Example 7, case three, usually very intolerant of medications): No side effects were noticed | inhibition of monoamine oxidase [2]: does not inhibit | eruptions ([3]; taken at onset of pre-outbreak symptoms): has not had an eruption since | inhibition of neuronal uptake of noradrenaline [4]: relatively weak inhibitor | inhibition of neuronal uptake of dopamine [5]: relatively weak inhibitor | time until the attack was aborted ([6]; Example 1, case gamma, first use of bupropion): ≤ 2 days | outcome of an attack about to commence [6, 10]: aborts the attack completely, or reduces it to a small crop of lesions | time to complete healing of the small crop of lesions [6, 10]: ≤ 48 h | recurrence since commencing the regime ([6]; Example 1, case gamma, over one year): There has not been a single significant recurrence | lesions after treatment [6, 11]: lesions had cleared completely | post-viraemia fatigue [6, 11]: had not developed any post-viraemia fatigue | eruptions after a further course at tingling ([6]; Example 4, case one, further 2 day course): did not develop any eruptions | time until the lesion had dried out ([7]; Example 8, 150 mg twice daily for 2 days): ≤ 24 h | further time until the lesion was scabbing ([7]; Example 8, 150 mg twice daily for 2 days, after drying out): ≤ 12 h | time to complete resolution (later) ([7]; Example 8, 150 mg twice daily for 2 days, after scabbing): 3 days | complete resolution of lesions (day of outbreak) ([8]; Example 2, case four, HSV I cold sores, 300 mg twice daily for 2 days from day 2 of outbreak): ≤ 3 days | minor recurrence one week later ([8]; Example 2, case four, similar dosage): aborted by a similar dosage within the first day | eruptions ([8]; Example 3, case five, 2 tablets of 150 mg when they feel the tingling): has not had an eruption in the last 3 months | outbreak after tingling of the lip ([8]; Example 5, case beta, 150 mg every 12 hours for 2 days, two episodes): No outbreak of herpes labialis occurred | lesion by day 5 ([8]; Example 7, case alpha): hardly noticeable | time after which the lesion started disappearing ([8]; Example 7, case alpha): 3 days | progression of lesions ([8]; Example 7, case three, within 36 hours of taking 300 mg): did not progress from their initial lesion | comparison with other anti-viral agents such as acydovir and famciclovir [9]: superior to many other anti-viral agents

CC(=O)OCC(CCn1cnc2cnc(N)nc21)COC(C)=O [Famciclovir]
interval between minor outbreaks (approximately once every) ([3]; continuous therapy): 2-3 months | suppression of disease ([3]; continuous therapy): successfully suppressed their disease

Nc1nc2c(ncn2COCCO)c(=O)[nH]1 [acyclovir]
adverse effects ([1]; Example 6, case two, given for recurrent buttock herpes simplex II, reverted to normal 1 year after ceasing): developed hypertension and mild renal impairment | effect in aborting the attacks ([6]; Example 1, case gamma): partially effective | duration of the attacks ([6]; Example 1, case gamma, recurrent genital Herpes Simplex, reduced from 2 weeks): 5 to 7 days | effect of topical therapy ([7]; Example 8, medical receptionist, herpes labialis, topical, in the past): unhelpful | duration of attacks ([8]; Example 3, case five, mild herpes labialis, taken with the tingling): 3 days | severity of attacks ([8]; Example 3, case five, taken with the tingling): barely detectable | lesions during suppressive therapy ([8]; Example 5, case beta, recurrent herpes labialis): breakthrough lesions | course of the illness (significant outbreak) ([8]; Example 7, case three, severe herpes labialis, topical): 2 weeks
